{"source": "patent US20230255943A1", "about": "“MMP-9 AND MMP-12 INHIBITION FOR TREATING SPINAL CORD INJURY OR RELATED INJURY TO NEUROLOGICAL TISSUE” (The University of Birmingham, priority 2020, published 2023)", "key": {"[1]": {"test_system": "rats with DC crush injury", "experiment": "Tape sensing and removal (sensory function) in rat DC model", "type": "in vivo", "conditions": "over 6 weeks", "description": "(§1) The efficacy of oral AZD3342 in the DC injury model in adult Sprague-Dawley rat was also assessed. Animals were divided into 6 groups: (1), Sham (control); (2), DC crush injury+Vehicle; (3), DC crush injury+15 mg/kg AZD3342; (4), DC crush injury+75 mg/kg […]; (5), DC crush injury+375 mg/kg AZD3342; and (6), DC crush injury+Melatonin. Animals were dosed twice daily with oral AZD3342 or vehicle with the experimenters masked to the treatment conditions. These experiments were performed with n=6 rats/group and repeated on 2-3 independent occasions (total n=12-18 rats/group/test).\nFunctional testing after DC lesion and treatment was carried out as described previously (N. D. Fagoe, C. L. Attwell, R. Eggers, L. Tuinenbreijer, D. Kouwenhoven, J. Verhaagen, M. R. Mason, Evaluation of Five Tests for Sensitivity to Functional Deficits following Cervical or Thoracic Dorsal Column Transection in the Rat. PLoS One 11, e0150141 (2016)). […]\nTape removal test (sensory function): The tape removal test determines touch perception from the left hind paw. After holding animals with both hind-paws extended, the time it took for the animal to detect and remove a piece of tape of 15×15 mm (Kip Hochkrepp, Bocholt, Germany) affixed to the palm of the left hind-paw was recorded and used to calculate the mean sensing time."}, "MMP-12": {"biological_target": "T1, MMP-12 (Rattus norvegicus, UniProt Q63341)", "T1 construct": "from tissue; host or cells: Sprague-Dawley rat spinal cord lesion site", "T1 sequence (Q63341 102-465)": "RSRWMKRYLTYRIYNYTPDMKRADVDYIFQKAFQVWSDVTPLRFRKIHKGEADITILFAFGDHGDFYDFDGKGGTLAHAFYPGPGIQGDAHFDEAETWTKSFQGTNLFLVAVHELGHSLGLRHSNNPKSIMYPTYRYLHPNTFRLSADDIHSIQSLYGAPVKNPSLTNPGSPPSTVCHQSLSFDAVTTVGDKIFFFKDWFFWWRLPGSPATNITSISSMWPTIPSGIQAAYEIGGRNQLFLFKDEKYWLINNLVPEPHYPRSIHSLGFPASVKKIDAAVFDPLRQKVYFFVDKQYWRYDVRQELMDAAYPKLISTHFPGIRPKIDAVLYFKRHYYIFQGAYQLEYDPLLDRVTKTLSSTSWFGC", "experiment": "MMP-12 activity after DC injury in rats", "type": "in vivo", "conditions": "oral", "description": "as §1\n(§2) The lesion site+3 mm either side for mouse (DC and CC SCI) and lesion site+5 mm either side for rat was dissected (n=6 mice/rats/group, 2 independent repeats, total n=12 mice/rats/group) and rapidly frozen in liquid N2 and stored at −80° C. until required. The enzymatic activity of MMP-9 and MMP-12 was determined in 96-well plates using the SensoLyte 520 MMP-9 and MMP-12 fluorimetric assay kit, according to the manufacturer's instructions (AnaSpec, Fremont, Calif., USA). Fluorescence intensity was measured using a Synergy H1 microplate reader (BioTek UK, Swindon, UK) at Ex/Em=490/520 nm."}, "MMP-9 [2]": {"biological_target": "T2, MMP-9 (Rattus norvegicus, UniProt P50282)", "T2 construct": "from tissue; host or cells: Sprague-Dawley rat spinal cord lesion site", "T2 sequence (P50282 108-708)": "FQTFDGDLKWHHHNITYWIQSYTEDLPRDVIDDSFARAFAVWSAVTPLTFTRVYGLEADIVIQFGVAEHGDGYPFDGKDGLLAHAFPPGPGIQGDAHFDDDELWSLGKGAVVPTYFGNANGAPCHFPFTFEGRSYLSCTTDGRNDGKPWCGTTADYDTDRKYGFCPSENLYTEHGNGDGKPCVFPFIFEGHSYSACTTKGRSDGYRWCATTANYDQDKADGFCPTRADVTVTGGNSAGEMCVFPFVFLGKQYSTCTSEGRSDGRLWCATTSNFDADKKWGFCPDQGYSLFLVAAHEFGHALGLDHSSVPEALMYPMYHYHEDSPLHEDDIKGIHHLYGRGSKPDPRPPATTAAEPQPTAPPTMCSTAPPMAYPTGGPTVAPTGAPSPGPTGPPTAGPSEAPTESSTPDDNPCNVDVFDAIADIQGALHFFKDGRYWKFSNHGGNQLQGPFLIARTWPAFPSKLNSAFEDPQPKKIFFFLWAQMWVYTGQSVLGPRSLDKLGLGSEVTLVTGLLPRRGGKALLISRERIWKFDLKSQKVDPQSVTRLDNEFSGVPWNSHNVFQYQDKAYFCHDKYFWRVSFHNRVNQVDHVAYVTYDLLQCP", "experiment": "MMP-9 activity after DC injury in rats", "type": "in vivo", "conditions": "oral", "description": "as §1, §2"}, "[3]": {"test_system": "mice with DC crush injury", "experiment": "Spinal cord water content (oedema) after DC crush injury in mice", "type": "in vivo, mouse", "conditions": "IP, twice daily"}, "MMP-9 [4]": {"biological_target": "T3, MMP-9 (Mus musculus, UniProt P41245)", "T3 construct": "from tissue; host or cells: mouse spinal cord lesion site homogenate, serum and CSF", "T3 sequence (P41245 108-730)": "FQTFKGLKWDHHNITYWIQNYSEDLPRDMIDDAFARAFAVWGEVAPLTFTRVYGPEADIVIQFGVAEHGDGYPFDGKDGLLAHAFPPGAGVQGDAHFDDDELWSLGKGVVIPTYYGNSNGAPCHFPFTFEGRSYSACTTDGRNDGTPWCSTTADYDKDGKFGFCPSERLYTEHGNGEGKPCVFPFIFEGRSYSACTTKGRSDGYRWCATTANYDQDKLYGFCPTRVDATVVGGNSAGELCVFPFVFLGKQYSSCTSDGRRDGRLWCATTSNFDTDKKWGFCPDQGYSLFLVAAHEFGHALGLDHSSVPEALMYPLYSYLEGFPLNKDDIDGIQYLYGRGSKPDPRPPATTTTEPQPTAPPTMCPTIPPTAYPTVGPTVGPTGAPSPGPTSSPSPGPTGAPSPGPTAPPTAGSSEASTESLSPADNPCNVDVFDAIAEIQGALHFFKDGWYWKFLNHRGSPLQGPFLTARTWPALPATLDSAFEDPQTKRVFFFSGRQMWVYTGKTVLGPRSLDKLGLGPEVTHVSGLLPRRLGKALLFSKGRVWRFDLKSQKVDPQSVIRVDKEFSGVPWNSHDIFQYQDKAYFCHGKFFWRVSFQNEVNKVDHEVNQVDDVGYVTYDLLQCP", "experiment": "MMP-9 enzyme activity after SCI in mice (SensoLyte 520 fluorimetric assay)", "type": "in vivo", "conditions": "for suppression of MMP-9 activity in CSF / suppression of MMP-9 activity in serum / suppression of MMP-9 activity in spinal cord tissues: DC injury; for suppression of MMP-9 activity in spinal cord tissues: lowest most effective dose; for lowest most effective dose: suppression of MMP-9 and MMP-12 activity", "description": "For oral delivery of AZD1236, n=6 adult male C57BL6 mice/group (Charles River, Margate, UK) were randomly allocated to either: (1), Sham (control; partial laminectomy but no DC crush injury); (2), DC crush injury+vehicle (partial laminectomy followed by DC crush injury and injection of vehicle); (3), DC crush injury+100 mg/kg AZD1236; (4), DC crush injury+200 mg/kg AZD1236; and (5), DC crush injury+300 mg/kg AZD1236. For intrathecal (it) delivery of AZD1236, adult male C57BL6 mice (25-30 g) (Charles River, Margate, UK) were randomly allocated to either: (1), Sham (control; partial laminectomy but no DC crush injury); (2), DC crush injury+vehicle (partial laminectomy followed by DC crush injury and injection of vehicle); (3), DC crush injury+2.5 mg/kg AZD1236; (4), DC crush injury+5 mg/kg AZD1236; and (5), DC crush injury+10 mg/kg AZD1236. For intrathecal delivery an indwelling atlanto-occipital intrathecal catheter was inserted into the intrathecal space, as described previously (F. A. Oladosu, B. P. Ciszek, S. C. O'Buckley, A. G. Nackley, Novel intrathecal and subcutaneous catheter delivery systems in the mouse. J Neurosci Methods 264, 119-128 (2016)). Briefly, with mice in the sternal recumbency a small incision was made at the nape of the neck followed by detachment of the muscles on either side of the external occipital crest to expose the A-O membrane. The membrane was incised and a 6 cm Alzet mouse intrathecal catheter (Alzet, Cupertino, Calif., USA) and polyurethane segments were gently guided 2.5 cm into the intrathecal space. The catheter was secured using 4-0 silk sutures (Oasis Medical, IL) and the exposed end of the catheter was sealed off with a stainless-steel plug and affixed to the upper back. Animals were injected immediately with vehicle or AZD1236 followed by a 10 μl PBS catheter flush. Injections were repeated every twice daily for the first 3 days after injury and drugs and vehicle reagents were delivered over 1 min time period using a Hamilton microlitre syringe (Hamilton Co, USA). Where specified intact animals with no surgical procedures were also used. All lesions were administered under 5% isofluorane induced inhalation anaesthesia, with 1.51/min O2. Pre- and post-injury analgesia was also provided.\nDC crush injury was administered bilaterally at the T8 vertebral level as described previously (S. Surey, M. Berry, A. Logan, R. Bicknell, Z. Ahmed, Differential cavitation, angiogenesis and wound-healing responses in injured mouse and rat spinal cords. Neuroscience 275, 62-80 (2014); M. L. Read, S. Mir, R. Spice, R. J. Seabright, E. L. Suggate, Z. Ahmed, M. Berry, A. Logan, Profiling RNA interference (RNAi)-mediated toxicity in neural cultures for effective short interfering RNA design. J Gene Med 11, 523-534 (2009)). Briefly, calibrated watchmaker's forceps were separated by 0.5 mm and inserted through the dorsal cord meninges to a depth of 0.45 mm in mice and separated by 1 mm and inserted through the dorsal cord meninges to a depth of 1.0 mm in rats, and the DC were crushed for 3 seconds. AZD1236 or vehicle was administered twice daily by oral gavage or intrathecally, either immediately for the first 3 days or 24 hours after injury and treating twice daily until day 4 (i.e. 3 days of AZD1236 dosing). All experiments were performed with n=6 mice/group and repeated on at least 2-3 independent occasions (total=12-18 animals/group/test).\nCC SCI was administered at the T7-T8 vertebral level after exposure of T6-T9 by laminectomy. […]"}}}
{"smiles": "C[C@]1(CS(=O)(=O)N2CCC(Oc3ccc(Cl)cn3)CC2)NC(=O)NC1=O", "note": "[AZD3342, (5S)-5-[4-(5-chloro-pyridin-2-yloxy)-piperidine-1-sulfonylmethyl]-5-methylimidazolidine-2,4-dione]", "values": [{"measurement": "sensory function (tape sensing and removal)", "setting": "[1]", "result": "significantly improved"}, {"measurement": "MMP-12 activity", "setting": "MMP-12", "result": "significantly suppresses"}, {"measurement": "MMP-9 activity", "setting": "MMP-9 [2]", "result": "significantly suppresses"}]}
{"smiles": "CCN(CC)Cc1cc(C)c(N(Cc2ccccc2)S(=O)(=O)c2ccc(OC)cc2)c(C(=O)NO)c1", "note": "[MMP-9 Inhibitor I, reference compound]", "values": [{"measurement": "SCI-induced oedema with tool inhibitors singly or in combination (FIG. 3D)", "setting": "[3]", "result": "suboptimal therapeutic benefits"}]}
{"smiles": "C[C@]1(CS(=O)(=O)N2CC=C(C#Cc3cnc(C4CC4)nc3)CC2)NC(=O)NC1=O", "note": "[AZD1236]", "values": [{"measurement": "suppression of MMP-9 activity in CSF", "setting": "MMP-9 [4]; intrathecal delivery", "result": "88±2", "unit": "%"}, {"measurement": "suppression of MMP-9 activity in serum", "setting": "MMP-9 [4]; intrathecal delivery", "result": "71±2", "unit": "%"}, {"measurement": "suppression of MMP-9 activity in spinal cord tissues", "setting": "MMP-9 [4]; intrathecal", "result": "87±5", "unit": "%"}, {"measurement": "suppression of MMP-9 activity in CSF", "setting": "MMP-9 [4]; oral delivery, 200 mg/kg", "result": "74±2", "unit": "%"}, {"measurement": "suppression of MMP-9 activity in serum", "setting": "MMP-9 [4]; oral delivery, 200 mg/kg", "result": "90±2", "unit": "%"}, {"measurement": "suppression of MMP-9 activity in spinal cord tissues", "setting": "MMP-9 [4]; oral", "result": "88±4", "unit": "%"}, {"measurement": "time for MMP-9 activity to return to DC+Vehicle injury levels after withdrawal", "setting": "MMP-9 [4]; injury site, oral dosing withdrawn after 3 d", "result": 4, "unit": "days"}, {"measurement": "lowest most effective dose", "setting": "MMP-9 [4]; intrathecal injection", "result": 5, "unit": "mg/kg"}, {"measurement": "MMP-9 activity, 24-h delayed treatment", "setting": "MMP-9 [4]; optimal doses, 24 h delay vs immediate", "result": "equally as effective as immediate delivery"}, {"measurement": "lowest most effective dose", "setting": "MMP-9 [4]; oral administration", "result": 200, "unit": "mg/kg"}]}
